Measurements reported in patent US9334289B2, “Cephem compound having catechol or pseudo-catechol structure” (SHIONOGI & CO., LTD., priority 2011, dated 2016).
Converted amounts (≈) assume the structure as drawn.

Tests used:
Assay in all cases: MIC, CLSI broth microdilution, Test Example 2
Assay type in all cases: cell-based
[1] = system: A. baumannii SR01331; conditions: PER-1, OXA-23.51 ESBL- & OXA-type carbapenemase producing strain, cation-adjusted Iso-Sensitest broth containing human Apo-transferrin, 5×10^5 cfu/mL; for MIC: Acinetobacter baumannii, SR01331, read-out: Minimum Inhibitory Concentration (MIC) A. baumannii SR01331
Protocol: (§1) Measurement of Minimum Inhibitory Concentration (MIC: μg/mL) was conducted according to CLSI (Clinical and Laboratory Standards Institute) method, and the amount of bacteria for inoculation was 5×10^5 cfu/mL, and cation-adjusted Iso-Sensitest broth containing human Apo-transferrin was used as a test medium, and the experiment was conducted using broth microdilution method.

[2] = system: P. aeruginosa SR01332; conditions: VIM-11 MBL producing strain (carbapenem resistance strain), cation-adjusted Iso-Sensitest broth containing human Apo-transferrin, 5×10^5 cfu/mL; for MIC: Pseudomonas aeruginosa, SR01332, read-out: Minimum Inhibitory Concentration (MIC) P. aeruginosa SR01332
Protocol: as §1

[3] = system: E. coli ATCCBAA-196; conditions: TEM-10 ESBL producing strain, cation-adjusted Iso-Sensitest broth containing human Apo-transferrin, 5×10^5 cfu/mL; for MIC: Escherichia coli, ATCCBAA196, read-out: Minimum Inhibitory Concentration (MIC) E. coli ATCC BAA-196
Protocol: as §1

[4] = system: E. cloacae NCTC13464; conditions: CTX-M group 9 ESBL producing strain, cation-adjusted Iso-Sensitest broth containing human Apo-transferrin, 5×10^5 cfu/mL; for MIC: Enterobacter cloacae, NCTC13464, read-out: Minimum Inhibitory Concentration (MIC) E. cloacae NCTC 13464
Protocol: as §1

[5] = system: K. pneumoniae ATCC700603; conditions: SHV18 ESBL producing strain, cation-adjusted Iso-Sensitest broth containing human Apo-transferrin, 5×10^5 cfu/mL; for MIC: Klebsiella pneumoniae, ATCC700603, read-out: Minimum Inhibitory Concentration (MIC) K. pneumoniae ATCC 700603
Protocol: as §1

[6] = system: E. coli ATCCBAA-200; conditions: SHV-4 ESBL producing strain, cation-adjusted Iso-Sensitest broth containing human Apo-transferrin, 5×10^5 cfu/mL; for MIC: Escherichia coli, ATCCBAA200, read-out: Minimum Inhibitory Concentration (MIC) E. coli ATCC BAA-200
Protocol: as §1

[7] = system: E. coli SR01337; conditions: TEM-1 ESBL producing strain, cation-adjusted Iso-Sensitest broth containing human Apo-transferrin, 5×10^5 cfu/mL; for MIC: Escherichia coli, SR01337, read-out: Minimum Inhibitory Concentration (MIC) E. coli SR01337
Protocol: as §1

[8] = system: P. aeruginosa SR01335; conditions: VIM-1 like MBL producing strain (carbapenem resistance strain), cation-adjusted Iso-Sensitest broth containing human Apo-transferrin, 5×10^5 cfu/mL; for MIC: Pseudomonas aeruginosa, SR01335, read-out: Minimum Inhibitory Concentration (MIC) P. aeruginosa SR01335
Protocol: as §1

Compound: CC(C)(O/N=C(\C(=O)N[C@@H]1C(=O)N2C(c3nnn[n-]3)=C(C[n+]3ccc(CNC(=O)c4ccc(O)c(O)c4Cl)cc3)CS[C@H]12)c1nc(N)sc1Cl)C(=O)[O-].[Na+] [Compound I-31]
- MIC [1]: 0.5 µg/mL
- MIC [2]: 1 µg/mL
- MIC [3]: 0.063 µg/mL
- MIC [4]: 0.125 µg/mL
- MIC [5]: 0.125 µg/mL
- MIC [6]: 0.25 µg/mL
- MIC [7]: ≤ 0.031 µg/mL
- MIC [8]: 1 µg/mL

Compound: Nc1nc(/C(=N/O[C@@H](CC(=O)O)C(=O)[O-])C(=O)N[C@@H]2C(=O)N3C(c4nnn[nH]4)=C(C[N+]4(CCNC(=O)c5ccc(O)c(O)c5F)CCCC4)CS[C@H]23)cs1 [Compound I-102]
- MIC [1]: 0.25 µg/mL (≈ 0.317 µM)
- MIC [2]: 4 µg/mL (≈ 5.06 µM)
- MIC [3]: ≤ 0.031 µg/mL
- MIC [4]: 0.063 µg/mL (≈ 0.0798 µM)
- MIC [5]: ≤ 0.031 µg/mL
- MIC [6]: 0.063 µg/mL (≈ 0.0798 µM)
- MIC [7]: ≤ 0.031 µg/mL
- MIC [8]: 1 µg/mL (≈ 1.27 µM)

Compound: CC(C)(O/N=C(\C(=O)N[C@@H]1C(=O)N2C(c3nnn[nH]3)=C(C[N+]3(CCNC(=O)c4ccc(O)c(O)c4Cl)CCCCC3)CS[C@H]12)c1nsc(N)n1)C(=O)[O-] [Compound I-118]
- MIC [1]: 0.25 µg/mL (≈ 0.316 µM)
- MIC [2]: 8 µg/mL (≈ 10.1 µM)
- MIC [3]: 0.25 µg/mL (≈ 0.316 µM)
- MIC [4]: 0.25 µg/mL (≈ 0.316 µM)
- MIC [5]: 0.063 µg/mL (≈ 0.0796 µM)
- MIC [6]: 0.25 µg/mL (≈ 0.316 µM)
- MIC [7]: ≤ 0.031 µg/mL
- MIC [8]: 1 µg/mL (≈ 1.26 µM)

Compound: C[N+](C)(CCNC(=O)c1ccc(O)c(O)c1Cl)CC1=C(c2nnn[nH]2)N2C(=O)[C@@H](NC(=O)/C(=N\O[C@@H](CC(=O)O)C(=O)[O-])c3nc(N)sc3Cl)[C@H]2SC1 [Compound I-101]
- MIC [1]: 0.25 µg/mL (≈ 0.307 µM)
- MIC [2]: 2 µg/mL (≈ 2.46 µM)
- MIC [3]: ≤ 0.031 µg/mL
- MIC [4]: 0.063 µg/mL (≈ 0.0773 µM)
- MIC [5]: 0.125 µg/mL (≈ 0.153 µM)
- MIC [6]: 0.063 µg/mL (≈ 0.0773 µM)
- MIC [7]: ≤ 0.031 µg/mL
- MIC [8]: 1 µg/mL (≈ 1.23 µM)

Compound: CC(C)(O/N=C(\C(=O)N[C@@H]1C(=O)N2C(c3nnn[n-]3)=C(C[n+]3ccc(NC(=O)c4ccc(O)c(O)c4Cl)cc3)CS[C@H]12)c1nsc(N)n1)C(=O)[O-].[Na+] [Compound I-116]
- MIC [1]: 0.25 µg/mL
- MIC [2]: 2 µg/mL
- MIC [3]: 0.5 µg/mL
- MIC [4]: ≤ 0.031 µg/mL
- MIC [5]: 0.25 µg/mL
- MIC [6]: 1 µg/mL
- MIC [7]: ≤ 0.031 µg/mL
- MIC [8]: 1 µg/mL

Compound: CC(C)(O/N=C(\C(=O)N[C@@H]1C(=O)N2C(c3nnn[nH]3)=C(C[N+]3(CCNC(=O)c4ccc(O)c(O)c4F)CCCC3)CS[C@H]12)c1nc(N)sc1Cl)C(=O)[O-] [Compound I-106]
- MIC [1]: 0.5 µg/mL (≈ 0.63 µM)
- MIC [2]: 4 µg/mL (≈ 5.04 µM)
- MIC [3]: ≤ 0.031 µg/mL
- MIC [4]: 0.063 µg/mL (≈ 0.0793 µM)
- MIC [5]: ≤ 0.031 µg/mL
- MIC [6]: 0.063 µg/mL (≈ 0.0793 µM)
- MIC [7]: ≤ 0.031 µg/mL
- MIC [8]: 1 µg/mL (≈ 1.26 µM)

Compound: CC(C)(O/N=C(\C(=O)N[C@@H]1C(=O)N2C(c3nnn[nH]3)=C(C[N+]3(CCNC(=O)c4cc(O)c(O)c(F)c4)CCCC3)CS[C@H]12)c1nsc(N)n1)C(=O)[O-] [Compound I-108]
- MIC [1]: 1 µg/mL (≈ 1.31 µM)
- MIC [2]: 2 µg/mL (≈ 2.63 µM)
- MIC [3]: 0.25 µg/mL (≈ 0.329 µM)
- MIC [4]: 0.125 µg/mL (≈ 0.164 µM)
- MIC [5]: 0.25 µg/mL (≈ 0.329 µM)
- MIC [6]: 0.25 µg/mL (≈ 0.329 µM)
- MIC [7]: ≤ 0.031 µg/mL
- MIC [8]: 2 µg/mL (≈ 2.63 µM)

Compound: CC(C)(O/N=C(\C(=O)N[C@@H]1C(=O)N2C(c3nnn[n-]3)=C(C[N+]3(CCNC(=O)c4cc(O)c(O)c(Cl)c4)CCCC3)CS[C@H]12)c1nc(N)sc1Cl)C(=O)[O-].[Na+] [Compound I-30]
- MIC [1]: 1 µg/mL
- MIC [2]: 2 µg/mL
- MIC [3]: ≤ 0.031 µg/mL
- MIC [4]: 0.063 µg/mL
- MIC [5]: 0.125 µg/mL
- MIC [6]: 0.063 µg/mL
- MIC [7]: ≤ 0.031 µg/mL
- MIC [8]: 2 µg/mL

Compound: Nc1nc(C(=NOC(CC(=O)[O-])C(=O)[O-])C(=O)NC2C(=O)N3C(c4nnn[n-]4)=C(C[N+]45CCC(CNC(=O)c6ccc(O)c(O)c6Cl)(CC4)CC5)CSC23)c(Cl)s1.[Na+].[Na+] (centres unmarked) [Compound I-94]
- Minimum Inhibitory Concentration (MIC) A. baumannii SR01331 [1]: 0.5 µg/mL
- Minimum Inhibitory Concentration (MIC) P. aeruginosa SR01332 [2]: 2 µg/mL
- Minimum Inhibitory Concentration (MIC) E. coli ATCC BAA-196 [3]: 0.063 µg/mL
- Minimum Inhibitory Concentration (MIC) E. cloacae NCTC 13464 [4]: 0.5 µg/mL
- Minimum Inhibitory Concentration (MIC) K. pneumoniae ATCC 700603 [5]: 0.5 µg/mL
- Minimum Inhibitory Concentration (MIC) E. coli ATCC BAA-200 [6]: 0.5 µg/mL
- Minimum Inhibitory Concentration (MIC) E. coli SR01337 [7]: 0.063 µg/mL
- Minimum Inhibitory Concentration (MIC) P. aeruginosa SR01335 [8]: 1 µg/mL

Compound: CC(C)(O/N=C(\C(=O)N[C@@H]1C(=O)N2C(c3nnn[nH]3)=C(C[N@+]34CCC[C@H]3CN(C(=O)c3ccc(O)c(O)c3Cl)CC4)CS[C@H]12)c1nc(N)sc1Cl)C(=O)[O-] [Compound I-105]
- MIC [1]: 2 µg/mL (≈ 2.43 µM)
- MIC [2]: 4 µg/mL (≈ 4.86 µM)
- MIC [3]: 0.063 µg/mL (≈ 0.0766 µM)
- MIC [4]: 0.25 µg/mL (≈ 0.304 µM)
- MIC [5]: 0.25 µg/mL (≈ 0.304 µM)
- MIC [6]: 0.25 µg/mL (≈ 0.304 µM)
- MIC [7]: ≤ 0.031 µg/mL
- MIC [8]: 2 µg/mL (≈ 2.43 µM)

Compound: Nc1nc(/C(=N/OC(C(=O)[O-])C(=O)[O-])C(=O)N[C@@H]2C(=O)N3C(C(=O)[O-])=C(C[N+]45CCC(CNC(=O)c6ccc(O)c(O)c6Cl)(CC4)CC5)CS[C@H]23)cs1.[Na+].[Na+] (some centres unmarked) [Comparative Compound 2, reference compound]
- MIC [1]: > 32 µg/mL
- MIC [2]: 32 µg/mL
- MIC [3]: 0.5 µg/mL
- MIC [4]: 0.5 µg/mL
- MIC [5]: 0.5 µg/mL
- MIC [6]: 1 µg/mL
- MIC [7]: > 32 µg/mL
- MIC [8]: 4 µg/mL

Compound: Cc1cc2cc(O)c(O)cc2c[n+]1CC1=C(c2nnn[n-]2)N2C(=O)[C@@H](NC(=O)/C(=N\OC(C)(C)C(=O)[O-])c3nc(N)sc3Cl)[C@H]2SC1.[Na+] [Compound I-38]
- MIC [1]: 0.5 µg/mL
- MIC [2]: 0.5 µg/mL
- MIC [3]: 0.063 µg/mL
- MIC [4]: 0.125 µg/mL
- MIC [5]: 0.125 µg/mL
- MIC [6]: 0.25 µg/mL
- MIC [7]: ≤ 0.031 µg/mL
- MIC [8]: 1 µg/mL

Compound: Nc1nc(/C(=N/O[C@@H](CC(=O)O)C(=O)[O-])C(=O)N[C@@H]2C(=O)N3C(c4nnn[nH]4)=C(C[N+]4(CCNC(=O)c5cc(O)c(O)c(F)c5)CCCC4)CS[C@H]23)c(Cl)s1 [Compound I-100]
- MIC [1]: 0.25 µg/mL (≈ 0.303 µM)
- MIC [2]: 2 µg/mL (≈ 2.43 µM)
- MIC [3]: ≤ 0.031 µg/mL
- MIC [4]: 0.25 µg/mL (≈ 0.303 µM)
- MIC [5]: 0.125 µg/mL (≈ 0.152 µM)
- MIC [6]: 0.063 µg/mL (≈ 0.0764 µM)
- MIC [7]: ≤ 0.031 µg/mL
- MIC [8]: 2 µg/mL (≈ 2.43 µM)
